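These data come from cells grown in 96-well plates and exposed to compound for 48 hours at five concentrations. At the GI50, growth is halved. TGI: concentration producing complete growth inhibition.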
Assays:
Assay in all cases: NCI tumour cell line growth inhibition, 48 h
[1] = test system: NCI/ADR-RES ovarian
[2] = test system: M14 melanoma
[3] = test system: NCI-H460 lung
[4] = test system: HCT-116 colon
[5] = test system: OVCAR-3 ovarian
[6] = test system: SK-MEL-2 melanoma
[7] = test system: HCC-2998 colon
[8] = test system: SW-620 colon
[9] = test system: UO-31 renal
[10] = test system: SR leukemia

Compound | TGI [1] | TGI [2] | TGI [3] | TGI [4] | TGI [5] | TGI [6] | TGI [7] | TGI [8] | TGI [9] | TGI [10] | GI50 [6] | GI50 [9] | GI50 [10] | GI50 [2] | GI50 [3] | GI50 [5] | GI50 [7] | GI50 [8]
O=C(N/N=C(/COc1ccccc1Cl)N=Cc1ccncc1)c1ccncc1 | > 100 µM | > 100 µM | > 100 µM | > 100 µM | > 100 µM | > 100 µM | > 100 µM | > 100 µM | – | – | – | – | – | – | – | – | – | –
Cc1c(O)c(OC2OC(CO)C(O)C(O)C2O)cc2c1C=C[C@@H]1[C@@]2(C)C(=O)C[C@]2(C)[C@@H]([C@@](C)(O)C(=O)CCC(C)(C)O)[C@H](O)C[C@@]12C (stereo partly specified) | 69.4 µM | 68.9 µM | 48 µM | 37.8 µM | 46.9 µM | 68.7 µM | 41 µM | 79.9 µM | 44.8 µM | > 100 µM | – | – | – | – | – | – | – | –
CN(C)CC1CCC/C(=C\c2ccc(OC(=O)/C=C/c3ccc(Cl)c(Cl)c3)cc2)C1=O (stereo unspecified) | 18.5 µM | 24.9 µM | 23.2 µM | 14.5 µM | 14.6 µM | 44.8 µM | 10.1 µM | 7.86 µM | 13.9 µM | 3.54 µM | – | – | – | – | – | – | – | –
CC1=CCC[C@H]2[C@](C)(CC3=CC(=O)C(Sc4ccccc4)=CC3=O)[C@@H](C)CC[C@]12C | 32.5 µM | 33.7 µM | 42.9 µM | 30.3 µM | 31.4 µM | 56.1 µM | 41 µM | 30.5 µM | 29.1 µM | 48.3 µM | 19.9 µM | – | – | – | – | – | – | –
COc1ccc(N=C2C(=Nc3ccc(OC)cc3)N(c3ccc(N(C)C)cc3)C(=S)N2c2ccc(OC)cc2)cc1 | > 100 µM | > 100 µM | > 100 µM | > 100 µM | > 100 µM | > 100 µM | > 100 µM | > 100 µM | > 100 µM | > 100 µM | – | – | – | – | – | – | – | –
COC1=C2C=[N+](C)C3C(=C2C=CC1OC)Cc1cc2c(cc13)OCO2 (stereo unspecified) | > 100 µM | 30.1 µM | – | 31.5 µM | 13.7 µM | 29.6 µM | – | > 100 µM | 26.6 µM | 42 µM | – | – | – | – | – | – | – | –
CCOC(=O)C(=CN1CCNC1=S)C(=O)OCC | > 100 µM | > 100 µM | > 100 µM | > 100 µM | > 32.4 µM | > 100 µM | > 100 µM | > 100 µM | > 100 µM | > 100 µM | – | > 100 µM | – | – | – | – | – | –
CCOC(=O)c1[nH]c2cccc3c2c1CC[C@H](NC(=O)C(F)(F)F)C3=O | > 100 µM | > 100 µM | > 100 µM | > 100 µM | > 100 µM | > 100 µM | > 100 µM | > 100 µM | > 100 µM | > 100 µM | – | – | – | – | – | – | – | –
CCCCCN(CCCCC)CC(C)(C)C(O)c1ccc(OC)c2ccccc12 (stereo unspecified) | 26.3 µM | 21.7 µM | 24.9 µM | 61.9 µM | 26 µM | 32.7 µM | 31.4 µM | 27.3 µM | 8.93 µM | 11.3 µM | – | – | – | – | – | – | – | –
COC(=O)c1cccc(OC)c1C#Cc1c(OC)cccc1OC | > 100 µM | > 100 µM | > 100 µM | > 100 µM | > 100 µM | > 100 µM | > 100 µM | > 100 µM | > 100 µM | > 100 µM | – | – | – | – | – | – | – | –
Cn1ccnc1CCc1ccc(Cl)c(Cl)c1 | – | > 100 µM | > 100 µM | > 100 µM | > 100 µM | > 100 µM | – | > 100 µM | > 100 µM | > 100 µM | – | – | – | – | – | – | – | –
O=C(O)CNC(=O)c1ccc2cc(C(=O)N3CC(CCl)c4ccc([N+](=O)[O-])cc43)[nH]c2c1 (stereo unspecified) | > 100 µM | > 100 µM | > 100 µM | > 100 µM | > 100 µM | > 100 µM | – | > 100 µM | > 100 µM | > 100 µM | – | – | – | – | – | – | – | –
CC12CCC(C(=Nc3cc(C(F)(F)F)cc(C(F)(F)F)c3)C1=O)C2(C)C (stereo unspecified) | > 100 µM | > 100 µM | > 100 µM | 99 µM | > 100 µM | 51.2 µM | 73.3 µM | > 100 µM | > 100 µM | 46.4 µM | – | – | – | – | – | – | – | –
COC([C@@H](OC(=O)c1ccccc1)[C@H](OC(=O)c1ccccc1)C(O)COC(=O)c1ccccc1)n1cc(C)c(=O)[nH]c1=O (stereo partly specified) | > 100 µM | 76 µM | > 100 µM | 87.8 µM | 97.1 µM | 67.1 µM | – | > 100 µM | > 100 µM | > 100 µM | – | – | – | – | – | – | – | –
CCCCCCCCCCCCCCCCCC(=O)Nc1ccn(C2CCC(COP(=O)(O)O)O2)c(=O)n1 (stereo unspecified) | > 100 µM | > 100 µM | – | > 100 µM | > 100 µM | > 100 µM | > 100 µM | > 100 µM | > 100 µM | > 100 µM | – | – | – | – | – | – | – | –
O=[N+]([O-])c1ccc([N+]2=NC(c3ccccc3)=NN(c3ccccc3)C2)cc1 | – | > 100 µM | > 100 µM | > 100 µM | > 100 µM | 92.4 µM | – | > 100 µM | > 100 µM | > 100 µM | – | – | – | – | – | – | – | –
Cc1ccc(S(=O)(=O)N/N=C2/CCC(C(C)(C)C)CC2Br)cc1 (stereo unspecified) | 36.5 µM | 35.4 µM | > 100 µM | 51.5 µM | 48.9 µM | 28.1 µM | – | 53.1 µM | 33.4 µM | > 100 µM | – | – | – | – | – | – | – | –
CN(Cc1cnc2nc(N)nc(N)c2n1)c1ccc(C(=O)NC(CCC(=O)NC(CC(P(=O)(O)O)P(=O)(O)O)C(=O)O)C(=O)O)cc1 (stereo unspecified) | > 100 µM | > 100 µM | > 100 µM | > 100 µM | > 100 µM | > 100 µM | – | > 100 µM | > 100 µM | > 100 µM | – | – | – | – | – | – | – | –
Clc1ccc(C2CC(c3cccc(Nc4ccncc4)c3)=NN2c2cc(Cl)cc(Cl)c2)cc1 (stereo unspecified) | – | 3.9 µM | 4.03 µM | – | 3.41 µM | – | 3.04 µM | 3.86 µM | 2.77 µM | 4.65 µM | – | 1.34 µM | 1.86 µM | 1.81 µM | 1.97 µM | 1.84 µM | 1.56 µM | 1.84 µM
CC(C)(C)OC(=O)N1[C@@H]2Cc3ccc(N)cc3[C@@]1(C)c1ccccc12 | 51.1 µM | 51.8 µM | 48.8 µM | 37.1 µM | 68 µM | 43.4 µM | 47.2 µM | > 100 µM | > 100 µM | – | – | – | – | – | – | – | – | –
Cc1c2ccccc2c(C)n2c1nc1ccccc12 | 39.5 µM | 24.1 µM | 20.1 µM | > 100 µM | 21.8 µM | – | 22.7 µM | > 100 µM | 24.1 µM | > 100 µM | – | – | – | – | – | – | – | –

Source: PubChem BioAssay (NCI)
